Reference: paper PMC10993414, “Water Quality Monitoring with the Multiplexed Assay MitoOxTox for Mitochondrial Toxicity, Oxidative Stress Response, and Cytotoxicity in AREc32 Cells” (Environmental Science & Technology, 2024)
Where two headings read alike, the source gives them in different places.

Key:
[1] = tested on: mitochondrial membrane potential (MMP) in AREc32 cells
AREc32 cells [2] = tested on: AREc32 cells
[3] = tested on: Nrf2-mediated oxidative stress response pathway (ARE) in AREc32 cells; assay: cells; details: Arec32, 24 h, read-out: Oxidative stress response ECIR1.5 (M)
[4] = experimental; ref PhysPropNCCT; cited from earlier work
AREc32 cells [5] = tested on: AREc32 cells; remark: listed apart in the source
[6] = tested on: mitochondrial membrane potential (MMP) in AREc32 cells; assay: Disruption of mitochondrial membrane potential (m-MPI red/green ratio), MitoOxTox; details: for MMP inhibition activity (in words): MitoOxTox, AREc32
[7] = tested on: Nrf2-mediated oxidative stress response pathway (ARE) in AREc32 cells; details: for Oxidative stress response ECIR1.5: effect concentration leading to induction ratio 1.5, AREc32, 24 h exposure
[8] = tested on: mitochondrial membrane potential (MMP) in HepG2 cells; details: cited from earlier work; for MMP inhibition activity (in words): Tox21 MMP assay, HepG2
[9] = ref Cessna et al. 1978; cited from earlier work
AREc32 cells [10] = assay: Cytotoxicity with ImageXpress high-content imaging, MitoOxTox; details: AREc32, 24 h exposure; for Cytotoxicity ImageExpress IC10: 10% reduction in cell viability; for Cytotoxicity ImageExpress log(IC10 (M)): logarithm of IC10, Corning plates
AREc32 cells [11] = assay: Cytotoxicity (cell confluency) with IncuCyte S3 live cell imaging, MitoOxTox; details: 10% reduction in cell viability; AREc32, 24 h exposure
[12] = tested on: oxidative stress response in AREc32 cells; set-up: method as in Escher et al. 42; details: original AREc32 reporter gene assay; ref Escher et al. 42; cited from earlier work
[13] = 10% reduction of MMP, AREc32, 24 h exposure
[14] = logarithm of EC10, AREc32, 24 h exposure

SMILES: O=[N+]([O-])c1ccc(O)c([N+](=O)[O-])c1 [2,4-Dinitrophenol]
- SRcytotoxicity ([1]; human): 35.1
- Cytotoxicity Incucyte IC10 (AREc32 cells [2]; human): 281 µM
- EC (induction ratio 1.5) [3]: 0.000156 M
- log Kow [L/L] [4]: 1.67 L/L
- Cytotoxicity ImageExpress IC10 (AREc32 cells [5]; human): 426 µM
- Cytotoxicity ImageExpress log(IC10 (M)) (AREc32 cells [5]; human): -3.37 M
- MMP inhibition EC10 [6, 13]: 12.1 µM
- MMP inhibition log(EC10 (M)) [6, 14]: -4.92 M
- activation of the oxidative stress response (in words) ([7]; AREc32): activated

SMILES: O=C(Nc1ccccc1-c1ccc(Cl)cc1)c1cccnc1Cl [Boscalid]
- Cytotoxicity Incucyte log(IC10 (M)) (AREc32 cells [2]): no cytotoxicity
- Cytotoxicity Incucyte IC10 (AREc32 cells [2]; human, 24 h): > 83.2 µM
- EC (induction ratio 1.5) [3]: > 8.32e-05 M
- log Kow [L/L] [4]: 2.96 L/L
- Cytotoxicity ImageExpress log(IC10 (M)) (AREc32 cells [5]): no cytotoxicity
- Cytotoxicity ImageExpress IC10 (AREc32 cells [5]; human, 24 h): > 83.2 µM
- MMP inhibition activity (in words) [8]: inactive
- MMP inhibition EC10 [6, 13]: > 83.2 µM
- MMP inhibition EC10 (M) ([6]; 10% reduction of MMP, AREc32, 24 h exposure, listed as boscalid): > 8.32 × 10^–5 M
- MMP inhibition activity (in words) [6]: inactive
- MMP inhibition log(EC10 (M)) [6, 14]: no Effect

SMILES: N#Cc1cc(Br)c(O)c(Br)c1 [Bromoxynil]
- pKa (Acid) [9]: 4.21
- MMP inhibition EC10 [6, 13]: 21.9 µM
- MMP inhibition log(EC10 (M)) [6, 14]: -4.66 M

SMILES: CC1=C(C(=O)Nc2ccccc2)SCCO1 [Carboxin]
- Cytotoxicity Incucyte IC10 (AREc32 cells [2]; human, 24 h): 1080 µM
- EC (induction ratio 1.5) [3]: 0.00014 M
- log Kow [L/L] [4]: 2.14 L/L
- Cytotoxicity ImageExpress log(IC10 (M)) (AREc32 cells [5]): no cytotoxicity
- Cytotoxicity ImageExpress IC10 (AREc32 cells [5]; human, 24 h): > 429 µM
- MMP inhibition EC10 [6, 13]: 152 µM
- EC10 ([6]; MMP, AREc32, 24 h): 152 µM
- MMP inhibition log(EC10 (M)) [6, 14]: -3.82 M
- activation of the oxidative stress response (in words) ([7]; AREc32): activated

SMILES: CNC(=O)/C(=N/OC)c1ccccc1COc1cc(C)ccc1C [Dimoxystrobin]
- SRcytotoxicity [1]: 324
- Cytotoxicity Incucyte IC10 (AREc32 cells [2]): 129 µM
- Cytotoxicity ImageExpress IC10 (AREc32 cells [5]): 142 µM
- Cytotoxicity ImageExpress log(IC10 (M)) (AREc32 cells [5]): -3.85 M
- MMP inhibition EC10 [6, 13]: 0.439 µM
- MMP inhibition log(EC10 (M)) [6, 14]: -6.36 M
- Oxidative stress response ECIR1.5 [7]: > 206 µM

SMILES: CC(C)(C)c1ccc(CCOc2ncnc3ccccc23)cc1 [Fenazaquin]
- SRcytotoxicity ([1]; human): 9356
- Cytotoxicity ImageExpress IC10 (AREc32 cells [10]): 110 µM
- Cytotoxicity ImageExpress log(IC10 (M)) (AREc32 cells [10]): -3.96 M
- Cytotoxicity Incucyte IC10 (AREc32 cells [11]): 100 µM
- EC (induction ratio 1.5) [3]: > 0.000314 M
- log Kow [L/L] [4]: 5.51 L/L
- MMP inhibition activity (in words) [8]: only active in the MitoOxTox assay
- MMP inhibition EC10 [6, 13]: 0.0118 µM
- MMP inhibition activity (in words) [6]: active
- MMP inhibition log(EC10 (M)) [6, 14]: -7.93 M

SMILES: Oc1c(Cl)c(Cl)c(Cl)c(Cl)c1Cl [Pentachlorophenol]
- SRcytotoxicity ([1]; human): 6.6
- Cytotoxicity Incucyte IC10 (AREc32 cells [2]; human): 67.9 µM
- EC (induction ratio 1.5) [3]: 6.91e-05 M
- Cytotoxicity ImageExpress IC10 (AREc32 cells [5]; human): 74.4 µM
- Cytotoxicity ImageExpress log(IC10 (M)) (AREc32 cells [5]; human): -4.13 M
- MMP inhibition EC10 [6]: 11.2 µM
- MMP inhibition log(EC10 (M)) [6]: -4.95 M
- activation of the oxidative stress response (in words) [7]: activated
- SRcytotoxicity (oxidative stress response) ([7]; human): 6.6

SMILES: CO/C=C(/C(=O)OC)c1ccccc1COc1cccc(C(F)(F)F)n1 [Picoxystrobin]
- SRcytotoxicity [1]: 59.5
- Cytotoxicity ImageExpress IC10 (AREc32 cells [10]): 80.1 µM
- Cytotoxicity ImageExpress log(IC10 (M)) (AREc32 cells [10]): -4.10 M
- Cytotoxicity Incucyte IC10 (AREc32 cells [11]): 77.7 µM
- MMP inhibition EC10 [6, 13]: 1.35 µM
- MMP inhibition log(EC10 (M)) [6, 14]: -5.87 M
- Oxidative stress response ECIR1.5 [7]: > 139 µM

SMILES: CCC/C=C/C=C/C(=O)O[C@H]1/C(=C/C(=O)OC)C[C@H]2C[C@H]([C@@H](C)O)OC(=O)C[C@H](O)C[C@@H]3C[C@H](OC(C)=O)C(C)(C)[C@](O)(C[C@@H]4C/C(=C/C(=O)OC)C[C@H](/C=C/C(C)(C)[C@]1(O)O2)O4)O3 [bryostatin 1]
- EC50 ([8]; HepG2 cells, 1 h of exposure, read-out: EC50 (decrease of MMP)): 0.0096 µM

SMILES: CC(C)(C)c1cc(O)ccc1O [tBHQ, tert-butylhydroquinone]
- ECIR1.5 [12]: 1.32 µM
- ECIR1.5 ([7]; current study, multiplexed MitoOxTox, AREc32): 3.14 µM
